# Experimental data published in PMC4520625 (Biochemistry, 2015).
# Assays:
# [1] = target: N-terminal domain of galectin-9 (Homo sapiens, UniProt O00182); assay type: cell-based; details: CHO wild-type cells, 1 mM
# [2] = target: galectin-3 (Homo sapiens, UniProt P17931); assay: Cell-based assay: inhibition of galectin-3 surface staining of SW480 cells; details: peptides at up to 1 mM
# [3] = target: galectin-3 CRD (Homo sapiens, UniProt P17931); assay: Isothermal titration calorimetry, galectin-3 CRD; assay type: binding
# Chain of galectin-3 CRD (P17931 118-248 limits assumed): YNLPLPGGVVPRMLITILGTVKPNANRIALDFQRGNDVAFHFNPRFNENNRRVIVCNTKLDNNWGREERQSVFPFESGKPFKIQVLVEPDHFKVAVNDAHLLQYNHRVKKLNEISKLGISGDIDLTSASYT
# [4] = target: galectin-3 (full-length) (Homo sapiens, UniProt P17931); assay: Isothermal titration calorimetry, full-length galectin-3; assay type: binding
# Chain of galectin-3 (full-length) (P17931 whole entry): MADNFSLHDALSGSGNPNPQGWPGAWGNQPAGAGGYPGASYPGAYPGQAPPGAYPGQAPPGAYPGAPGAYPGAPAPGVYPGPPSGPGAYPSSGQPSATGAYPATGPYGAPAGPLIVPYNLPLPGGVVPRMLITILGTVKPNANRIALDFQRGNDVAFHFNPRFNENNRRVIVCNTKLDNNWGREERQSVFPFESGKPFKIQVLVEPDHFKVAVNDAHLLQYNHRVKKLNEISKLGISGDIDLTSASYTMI
# Chain of N-terminal domain of galectin-9 (O00182 1-148): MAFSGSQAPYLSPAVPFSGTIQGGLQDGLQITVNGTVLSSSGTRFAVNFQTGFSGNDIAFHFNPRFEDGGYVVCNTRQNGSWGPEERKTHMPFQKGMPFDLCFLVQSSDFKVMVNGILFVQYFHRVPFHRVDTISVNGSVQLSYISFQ
# Chain of galectin-3 (P17931 whole entry): as the sequence (P17931 whole entry) above
inhibition of galectin-9 binding to cells (in words) [1],inhibition of galectin-3 binding to cells (in words) [2],Kd [3] [µM],"n (stoichiometry) ([3]; galectin-3 CRD, ITC)","–TΔS ([3]; galectin-3 CRD, ITC) [kcal/mol]","–ΔG ([3]; galectin-3 CRD, ITC) [kcal/mol]","–ΔH ([3]; galectin-3 CRD, ITC) [kcal/mol]","Ka ([3]; galectin-3 CRD, ITC, 25 °C, pH 7.2)",Kd [4] [µM],"n (stoichiometry) ([4]; full-length galectin-3, ITC)","–TΔS ([4]; full-length galectin-3, ITC) [kcal/mol]","–ΔH ([4]; full-length galectin-3, ITC) [kcal/mol]","Ka ([4]; full-length galectin-3, ITC, 25 °C, pH 7.2)",Compound
inhibitory,,,,,,,,,,,,,"OC[C@H]1O[C@@H](O[C@H]2[C@H](O)[C@@H](O)C(O)O[C@@H]2CO)[C@H](O)[C@@H](O)[C@H]1O (mixture of isomers) [Lac, lactose]"
inhibitory,less active than Lac,,,,,,,,,,,,"CC(=O)N[C@H]1C(O)O[C@H](CO)[C@H](O)[C@@H]1O (some centres unmarked) [GalNAc, N-acetylgalactosamine]"
,,248,0.93,9.11,4.94,14.05,0.40 ×10^–4 M^–1,245,0.82,3.30,8.74,0.40 ×10^–4 M^–1,"CC(=O)N[C@H]1C(O)O[C@H](CO)[C@H](O)[C@@H]1O[C@@H]1O[C@H](CO)[C@H](O)[C@H](O)[C@H]1O (stereo partly drawn) [TF, 2-acetamido-2-deoxy-3-O-(β-D-galactopyranosyl)-D-galactopyranose]"
